Assay results reported in patent publication US8158589B2, “Peptides with the capacity to bind to transforming growth factor β1 (TGF-β1)” (Proyecto Biomedicine Cima, S.L., priority 2003, dated 2012).
“Also recorded” adds a separate entry of the source. Ends that are not written are not given here.

Tests used:
TGF-β1 [1] = target: T1, TGF-β1 (Mus musculus, UniProt P04202); experiment: Model of acute liver damage induced by CCl4, type I collagen mRNA by real time PCR; assay type: in vivo, mice
T1 construct: from tissue; host or cells: liver of Balb/C mice (CCl4 model); lung of C57BL/6 mice (bleomycin model)
T1 sequence (P04202 279-390 limits assumed): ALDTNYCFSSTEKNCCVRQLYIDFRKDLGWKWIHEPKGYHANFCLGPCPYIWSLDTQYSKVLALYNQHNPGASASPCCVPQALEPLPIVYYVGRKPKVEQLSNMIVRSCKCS
How it was run: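 Female Balb/C mice (25–30 g) received a single oral dose of CCl4 at 2 µl/g body weight in corn oil (1:1). Peptide was given at 50 µg in 500 µl of 1% saline in DMSO every 24 h. At 72 h, liver type I collagen mRNA was quantified by real-time PCR against corn-oil controls.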

TGF-β1 [2] = target: T2, TGF-β1 (Homo sapiens, UniProt P01137); design: purchased R&D Systems; host or cells: added to IMR-90 human lung fibroblasts; settings: lung fibroblasts, Dotor et al. Cytokine 2007; cited from earlier work
Target sequence in this assay (P01137 279-390 limits assumed): as the sequence (P04202 279-390 limits assumed) above, with S75A counted along it

TGF-β1 [3] = target: T2, TGF-β1; assay type: cell-based; design: purchased Roche; host or cells: added to Mv-1-Lu (CCL-64) mink lung epithelial cells
Text: The cell line Mv-1-Lu (CCL-64, […], Virginia, USA) derives from mink pulmonary epithelium, grows as a monolayer, and responds to the presence of TGF-β1 by decreasing its proliferation (FIG. 5). Thus, the peptide-mediated inhibition of this cytokine is able to restore cell growth and reflects the capacity of the different peptides to inhibit the biological activity of TGF-β1 in vitro. The peptides tested were obtained by peptide synthesis, in accordance to conventional procedures (Merrifield R B. J Am Chem Soc 1963; 85:2149-2154; Atherton E et al. J Chem Soc Perkin Trans 1981; 1:538-546).
The Mv-1-Lu cells are cultured to confluence in complete medium [RPMI-1640 supplemented with L-glutamine, sodium pyruvate, antibiotics and 10% fetal bovine serum (FBS)] at 37° C. and in 5% CO2 in 162 cm^2 bottles (Costar Corporation, CA, USA). Following trypsinization, the cells are cultured in 200 μl of complete medium in 96-well plates at an initial density of 5,000 cells/well at 37° C. and in 5% CO2 during 6 hours to ensure adhesion. Then, different concentrations of the peptides to be tested are added, starting from 200 μg/ml, and following 200 pg/ml of TGF-β1 (Roche) are added. After 12 hours of incubation 1 μCi of methyl-3H-thymidine (Amersham Life Science, Buckinghamshire, United Kingdom) is added per well in 25 μl of clean medium (RPMI-1640). The plate is incubated for 12 more hours under the same conditions. Finally, the cells are harvested (Filtermate 196 Harvester, Packard), transferring the tritiated thymidine, incorporated in the course of DNA synthesis, to plates (UniFilter-96 GF/C®, Perkin Elmer). Following the addition of scintillation fluid, the radioactivity was quantified using a scintillation counter (Top Count, Microplate Scintillation Counter, Packard). As positive and negative control, use was made of the incorporation of tritiated thymidine in the absence and presence of TGF-β1, respectively. The inhibition of TGF-β1 activity in this test was calculated based on the following formula: […]
The negative control represents the incorporation of tritiated thymidine in the presence of TGF-β1 but in the absence of peptide, whereas the positive control refers to the incorporation of tritiated thymidine in the absence of TGF-β1 and peptide. Thus, according to the capacity of the peptides to revert the cytokine repressor effect on Mv-1-Lu cell line proliferation, percentage of TGF-β1 biological activity inhibition by the peptides can be measured (Table 2).
Comparisons have been made of the activity of truncated peptides (derived from peptide sequence SEQ ID NO: 17) versus the complete sequence, in terms of the capacity to revert the suppressor effect of TGF-β1 upon proliferation of the Mv-1-Lu cell line. To this effect, and to determine the minimum sequence of peptide SEQ ID NO: 17 capable of inhibiting the biological activity of TGF-β1 in vitro, truncated versions of this peptide were synthesized, with truncation at the N-terminal end, C-terminal end or in both ends of the molecule. The peptides tested were obtained by peptide synthesis following conventional procedures (Merrifield R B. J Am Chem Soc 1963; 85:2149-2154; Atherton E et al. J Chem Soc Perkin Trans 1981; 1:538-546). Following the same methodology described in Example 2, the activity of truncated peptides versus the complete sequence of the peptide SEQ ID NO: 17 was quantified, in terms of a proliferation assay of the Mv-1-Lu cell line.
Target sequence in this assay (P01137 279-390 limits assumed, species assumed): as the sequence (P04202 279-390 limits assumed) above, with S75A counted along it

## KRIWFIPRSSWYERA [SEQ ID NO: 17, KRIWFIPRSSWYERA]
TGF-β1 [1]; Balb/C mice, oral CCl4, 50 μg of peptide every 24 h, sacrifice after 72 hours
  % Inhibition of type I collagen mRNA induction (in vivo TGF-β1 biological activity): 93.09 ± 9.6%
TGF-β1 [1]; acute liver damage, type I collagen mRNA
  inhibition of the biological activity of TGF-β1 in vivo (in words): most active peptide; also recorded: much greater extent; also recorded: inhibitory capacity; also recorded: capable of inhibiting the expression of collagen type I mRNA
TGF-β1 [2]
  Smad2 phosphorylation induced by TGF-β1: decreased
TGF-β1 [3]
  % Inhibition of in vitro TGF-β1 biological activity: 28.5%
